“And” between values parts separate entries of the source, which are not always exact repeats. Identical values can stand only once. ± gives the expanded uncertainty stated by the source.
Tests used:
[1] = relative permittivity at various frequencies (dimensionless); xn = mol fraction of the nth substance listed; conditions: 101.33 kPa, Liquid, Frequency=3 MHz, OH-301
[2] = relative permittivity at various frequencies (dimensionless); conditions: 101.3 kPa, Liquid, Frequency=3 MHz

Structure (SMILES)	relative permittivity ([1]; 293.15 K, x1 = 1)	relative permittivity ([1]; 298.15 K, x1 = 1)	relative permittivity ([1]; 303.15 K, x1 = 1)	relative permittivity ([1]; 308.15 K, x1 = 1)	relative permittivity ([1]; 313.15 K, x1 = 1)	relative permittivity ([2]; 293.15 K, OH-301)	relative permittivity ([2]; 298.15 K, OH-301)	relative permittivity ([2]; 303.15 K, OH-301)	relative permittivity ([2]; 308.15 K, OH-301)	relative permittivity ([2]; 313.15 K, OH-301)	also measured
O=[N+]([O-])c1ccccc1 [nitrobenzene] + CCCOCCO	35.91 ± 0.06	34.78 ± 0.06	33.84 ± 0.05	33.13 ± 0.05	32.66 ± 0.04						
COCCO [2-methoxyethan-1-ol]						17.38 ± 0.04	16.95 ± 0.04 and 16.96 ± 0.04	16.56 ± 0.04	16.16 ± 0.04	15.77 ± 0.04	
CCCOCCO [2-propoxyethanol]						11.76 ± 0.04	11.5 ± 0.04	11.19 ± 0.04	10.91 ± 0.04	10.62 ± 0.04	
CCOCCO [2-ethoxyethan-1-ol]						14.25 ± 0.04	14.03 ± 0.04	13.76 ± 0.04	13.44 ± 0.04	13.07 ± 0.04	
O=[N+]([O-])c1ccccc1 [nitrobenzene] + CCOCCO	35.91 ± 0.06	34.78 ± 0.06	33.84 ± 0.05	33.13 ± 0.05	32.66 ± 0.04						
O=[N+]([O-])c1ccccc1 [nitrobenzene] + CCCCOCCO	35.91 ± 0.06	34.78 ± 0.06	33.84 ± 0.05	33.13 ± 0.05	32.66 ± 0.04						
O=[N+]([O-])c1ccccc1 [nitrobenzene]											relative permittivity ([2]; 293.15 K, OH-301 Stainless Steel Cell): 35.91 ± 0.06; relative permittivity ([2]; 298.15 K, OH-301 Stainless Steel Cell): 34.78 ± 0.04; relative permittivity ([2]; 303.15 K, OH-301 Stainless Steel Cell): 33.84 ± 0.05; relative permittivity ([2]; 308.15 K, OH-301 Stainless Steel Cell): 33.13 ± 0.05; relative permittivity ([2]; 313.15 K, OH-301 Stainless Steel Cell): 32.66 ± 0.04
COCCO [2-methoxyethan-1-ol] + O=[N+]([O-])c1ccccc1											relative permittivity ([1]; 293.15 K, x2 = 0): 17.38 ± 0.04; relative permittivity ([1]; 298.15 K, x2 = 0): 16.96 ± 0.04; relative permittivity ([1]; 303.15 K, x2 = 0): 16.56 ± 0.04; relative permittivity ([1]; 308.15 K, x2 = 0): 16.16 ± 0.04; relative permittivity ([1]; 313.15 K, x2 = 0): 15.77 ± 0.04
CCCCOCCO [2-butoxyethan-1-ol]						9.78 ± 0.04	9.35 ± 0.04	8.88 ± 0.04	8.39 ± 0.04	7.91 ± 0.04	
